This note sets out measurements from patent US9757399B2, “Butyrylcholinesterase inhibitors” (priority 2006, dated 2017).

The structures appear in SMILES notation. “And” between values parts separate entries of the source, which are not always exact repeats. Equal entries are not always repeated. Where two headings read alike, the source gives them in different places.

Data set [1] concerns the target T1, butyrylcholinesterase (Equus caballus, UniProt P81908).
T1 construct: butyrylcholinesterase (from horse serum); purchased Sigma; host or cells: horse serum (natural source)
Briefly: Reactivation of inactive butyrylcholinesterase. The data set is classed as biochemical, horse. Here is the method:
BuChase was incubated with excess di-butyl 2-chlorophenyl phosphate for 60 min at 4° C. The excess phosphate was removed using a desalting column. The inactivated BuChase was incubated at 4° C. for various periods of time and then assayed for activity. […]

For data set [2], the system named is human umbilical cells. The data set is classed as in vitro ADME. On the procedure:
Also, the uptake of di-n-butyl-2-chlorophenyl phosphate by human umbilical cells was measured after […] for both undifferentiated cells and differentiating neurons. (Table 6)

The test system of data set [3] is chymotrypsin. Briefly: Chymotrypsin activity (ATEE hydrolysis). The class given is biochemical. The note with it: 10 μM, 60 minutes at 25° C. Here is the method:
The effect of DB2ClPP on the activity of chymotrypsin was assayed. […] was incubated with solvent, 10 μM DB2CPP, or 10 μM PMSF (a known inhibitor of chymotrypsin) for 60 minutes at 25° C. to determine any inhibitory effect of DB2CPP on enzymatic activity. Enzyme activity is given as nmoles of ATEE hydrolyzed per minute at 25° C. Data shown are the mean of three replicates ±SEM. (FIG. 4)

The subject of data set [4] is hexokinase. The data set can be described thus: Hexokinase activity (NADPH generation). The class given is biochemical. The note with it: 10 μM, 60 min at 25° C. On the procedure: The effect of DB2ClPP on hexokinase activity was assayed. Hexokinase was incubated with solvent, 10 mM iodoacetamide (a known hexokinase inhibitor), or 10 μM DB2CPP for 60 min at 25° C. Enzyme activity is given as the nmoles of NADPH generated per min at 25° C. Data shown are the mean of three replicates ±SEM. (FIG. 6)

Data set [5] deals with T2, BuChase (Equus caballus, UniProt P81908).
T2 construct: butyrylcholinesterase (from horse serum); purchased Sigma; host or cells: horse serum (natural source)
Briefly: MALDI-TOF of tryptic peptides of inhibitor-treated BuChase. On the procedure: BuChase was incubated with di-n-butyl-2-chlorophenyl phosphate. Excess inhibitor was removed and the enzyme was digested with trypsin. The tryptic peptides were then analyzed by MALDI-TOF. Unmodified peptide containing the active site serine (MW 2198.86) and modified peptide (MW 2390.9060) can be seen. […] Irreversible inhibitors usually covalently modify an enzyme, and inhibition cannot therefore be reversed.

Data set [6] has as its target S6K2 (Homo sapiens, UniProt Q9UBS0). Briefly: S6K2 activity (GST-S6 substrate, Pro-Q stain). The data set is classed as biochemical. The note with it: varying concentrations, 30 minutes on ice, then ATP 30° C. 15 minutes. Here is the method: (§1) For protein kinase activity, histone was used as the substrate for protein kinase A (PKA) and glutathione-S-transferase-S6 (GST-S6) for S6K2. Enzyme was pre-incubated with substrate and varying concentrations of inhibitor on ice for 30 minutes. The control sample contained solvent (methanol). ATP was then added to each sample and the cocktail incubated at 30° C. for 15 minutes. Equal amounts of each mixture were fractionated by SDS-PAGE on a 10% acrylamide gel. The gel was fixed in 50% methanol/10% acetic acid, washed with water, and then stained in Pro-Q Stain in the dark for 60 minutes. The gel was then destained, washed, and scanned on a Typhoon Imager (FIG. 5).

Data set [7] concerns trypsin. Briefly: Trypsin activity (BAEE hydrolysis). The note with it: 10 μM, 60 minutes at 25° C. The class given is biochemical. On the procedure:
The effect of DB2ClPP (di-n-butyl 2-chlorophenyl phosphate) on the activity of trypsin was assayed. Trypsin was incubated with solvent, 10 μM DB2CPP, or 10 μM DIFP (a known inhibitor of trypsin) for 60 minutes at 25° C. to determine any inhibitory effect of DB2CPP on enzymatic activity. Enzyme activity is given as nmoles of BAEE hydrolyzed per minute at 25° C. Data shown are the mean of three replicates ±SEM. (FIG. 3)

Data set [8] has as its system porcine umbilical stem cells. The class given is in vitro ADME. On the procedure: In addition, uptake of di-n-butyl-2-chlorophenyl phosphate by porcine umbilical stem cells was measured after 24 and 48 hours of culture (Table 5).
The format of data set [9] is in vivo, male Long-Evans rats. The note with it: rat, intraperitoneal 0.2 mL of 10 mg/mL in DMSO, 30 minutes, brain tissue (1.5 g), GC/MS; one value per animal. On the procedure:
An animal study using two groups (n=7/group) of male Long-Evans rats (200-225 g, Charles River, Portage, Mich.) was conducted to determine whether DB2ClPP crosses the blood brain barrier. DB2ClPP was dissolved in dimethyl sulfoxide (DMSO). Rats were injected intraperitoneally with either 0.2 mL DMSO (vehicle control) or 0.2 mL of a 10 mg/mL solution of DB2ClPP with DMSO as solvent. Thirty minutes after DB2ClPP treatment, animals were deeply anesthetized with isoflurane and then decapitated. Brains were removed quickly, rinsed in ice cold phosphate buffer saline (pH 7.4) and block dissected and flash frozen in liquid nitrogen and stored at −80° C. until assayed.
The tissue from two animals injected with DB2ClPP were processed as follows: i) brain tissue (1.5 g) was allowed to thaw on ice in a Dounce homogenizer; ii) 10 mL of methylene chloride was added and the tissue extracted with 20 strokes of the loose fitting pestle. The homogenate was clarified by centrifugation and the supernatant extracted three times with methylene chloride using a separatory funnel. The organic phase was collected, pooled, and dried over magnesium sulfate. The eluate was then concentrated down to a volume of approximately 200 μl under nitrogen and analyzed by GC/MS for the presence of the DB2ClPP. A solution of neat DB2ClPP served as control. The DB2ClPP was present in both samples. […]

The test system of data set [10] is porcine umbilical stem cells. The class given is cell-based. The note with it: increasing concentrations, 48 hours, Neurobasal Medium. Here is the method:
Porcine umbilical stem cells were cultured in Neurobasal Medium supplemented with B27 (Invitrogen) and antibiotics for various periods of with varying concentrations of di-n-butyl-2-chlorophenyl phosphate. Cells were collected, washed, counted, and analyzed for viability by Trypan Blue staining.

Data set [11] concerns Protein Kinase A (PKA). The data set can be described thus: Protein kinase A activity (histone substrate, Pro-Q stain). The note with it: varying concentrations, 30 minutes on ice, then ATP 30° C. 15 minutes. The data set is classed as biochemical. Here is the method:
as §1

T1 sequence (P81908 whole entry): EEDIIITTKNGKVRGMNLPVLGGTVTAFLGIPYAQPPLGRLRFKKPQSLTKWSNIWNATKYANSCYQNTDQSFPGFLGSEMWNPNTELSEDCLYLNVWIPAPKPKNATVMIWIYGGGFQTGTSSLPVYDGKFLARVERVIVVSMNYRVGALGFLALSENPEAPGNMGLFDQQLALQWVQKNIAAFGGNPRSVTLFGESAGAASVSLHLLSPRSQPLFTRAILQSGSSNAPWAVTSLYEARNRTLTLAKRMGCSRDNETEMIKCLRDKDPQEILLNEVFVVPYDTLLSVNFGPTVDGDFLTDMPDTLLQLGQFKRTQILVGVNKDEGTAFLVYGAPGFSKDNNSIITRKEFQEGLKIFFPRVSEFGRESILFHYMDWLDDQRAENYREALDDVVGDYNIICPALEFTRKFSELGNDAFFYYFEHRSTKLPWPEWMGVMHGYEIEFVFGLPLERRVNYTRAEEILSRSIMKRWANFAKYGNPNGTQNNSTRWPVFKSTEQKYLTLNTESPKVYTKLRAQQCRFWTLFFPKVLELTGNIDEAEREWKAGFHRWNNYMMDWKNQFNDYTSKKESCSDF
S6K2, sequence (Q9UBS0 whole entry, looked up): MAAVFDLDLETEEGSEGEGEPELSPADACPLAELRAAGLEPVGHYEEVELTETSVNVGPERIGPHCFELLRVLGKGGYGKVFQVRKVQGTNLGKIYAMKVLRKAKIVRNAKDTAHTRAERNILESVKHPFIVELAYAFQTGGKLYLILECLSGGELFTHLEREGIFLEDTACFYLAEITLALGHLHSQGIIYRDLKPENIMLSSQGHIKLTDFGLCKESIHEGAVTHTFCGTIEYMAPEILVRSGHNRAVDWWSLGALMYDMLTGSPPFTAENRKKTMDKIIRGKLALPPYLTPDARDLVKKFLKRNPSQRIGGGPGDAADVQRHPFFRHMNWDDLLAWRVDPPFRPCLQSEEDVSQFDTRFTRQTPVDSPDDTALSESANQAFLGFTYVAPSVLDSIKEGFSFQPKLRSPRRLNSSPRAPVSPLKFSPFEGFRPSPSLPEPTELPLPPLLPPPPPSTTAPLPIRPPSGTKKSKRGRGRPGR
T2 sequence (P81908 whole entry): as the sequence (P81908 whole entry) above

`CCCCOP(=O)(OCCCC)Oc1ccccc1Cl` [DB2ClPP, Di-n-butyl 2-chlorophenyl phosphate]: the “% Remaining Activity” value is listed as 0.6% in data set [1] (0 hours at 4° C. after removal of excess inhibitor), 0.6% in [1] (3.5 hours at 4° C. after removal of excess inhibitor), 0.8% in data set [1] (7 hours at 4° C. after removal of excess inhibitor) and 1.1% in data set [1] (24 hours at 4° C. after removal of excess inhibitor). Also, the “reactivation of inactivated BuChase” value in data set [1] (over 24 hours at 4° C.) is “no significant reactivation”. Also, the “uptake, fg/cell” value is listed as 78.85 ± 8.04 fg/cell in data set [2] (Neurons, 0 hours); 820.52 ± 82.32 fg/cell in [2] (Neurons, 24 hours); 114.72 ± 37.93 fg/cell in data set [2] (Undifferentiated cells, 0 hours); 795.89 ± 202.41 fg/cell in [2] (Undifferentiated cells, 24 hours). The “effect on chymotrypsin activity (FIG. 4)” value in data set [3] is listed as “none of the above mentioned enzymes were affected”. For the same molecule, the “effect on hexokinase activity (FIG. 6)” value in data set [4] is given as “none of the above mentioned enzymes were affected”. In addition, in data set [5], the “type of inhibition from covalent modification of active site serine peptide (FIG. 12)” value is “likely an irreversible inhibitor”. Besides, in data set [6], the “effect on S6K2 activity (FIG. 5)” value is recorded as “none of the above mentioned enzymes were affected”. Besides, the “effect on trypsin activity (FIG. 3)” value in data set [7] is “none of the above mentioned enzymes were affected”. The results for the “fg DB2Cl-PP/cell (±SEM)” value in data set [8] (0 hours), in [8] (24 hours) and in data set [8] (48 hours) were 2.55 ± 0.011 fg/cell, 11.57 ± 1.02 fg/cell and 13.62 ± 0.003 fg/cell, respectively. Besides, the “amount of DB2ClPP in brain sample” value in data set [9] was 220 ng and 125 ng. In addition, the “effect on mortality of porcine umbilical stem cells (FIG. 7)” value in data set [10] is “did not have any significant effect on mortality”. Moreover, in [11], the “effect on PKA activity (FIG. 5)” value is given as “none of the above mentioned enzymes were affected”.
